Assay results reported in patent US20040087798A1, “Novel amide compounds” (priority 2000, published 2004).

| Compound | melting point [°C] |
| --- | --- |
| N=C(Nc1cccc(NC(=O)/C=C/c2ccccc2C(F)(F)F)c1)c1ccccc1 [Example 46, (2E)-N-[3-(iminobenzylamino)phenyl]-3-[2-(trifluoromethyl)phenyl]-2-propenamide] | 82 to 84 |
| O=C(C=Cc1ccccc1Cl)Nc1cccc(-c2nc3ccccc3[nH]2)c1 [Example 58, N-[3-(1H-benzimidazol-2-yl)phenyl]-3-(2-chlorophenyl)-2-propenamide] | 152 to 154 |
| CN(C)c1ccc(C(=N)Nc2cccc(NC(=O)C=Cc3ccccc3)c2)cc1 [Example 51, N-[3-[[[4-(dimethylamino)phenyl](imino)methyl]amino]phenyl]cinnamamide] | 225 to 227 |
| N=C(Nc1cc(NC(=O)/C=C/c2ccccc2Cl)cc(C(F)(F)F)c1)c1cccs1 [Example 32, (2E)-N-[3-trifluoromethyl-5-[[imino(2-thienyl)methyl]amino]phenyl]-3-(2-chlorophenyl)-2-propenamide] | 206 to 208 |
| N=C(Nc1cc(NC(=O)/C=C/c2ccccc2C(F)(F)F)ccc1Cl)c1ccccc1 [Example 145, (2E)-N-[4-chloro-3-(iminobenzylamino)phenyl]-3-(2-trifluoromethylphenyl)-2-propenamide] | 188 to 189 |
| Cc1ncccc1Oc1ccc(C(=N)Nc2cc(Cl)cc(NC(=O)C=Cc3ccccc3C(F)(F)F)c2)cc1 [Example 64, N-[3-chloro-5-[[imino[4-[(2-methyl-3-pyridyl)oxy]phenyl]methyl]amino]phenyl]-3-[2-(trifluoromethyl)phenyl]-2-propenamide] | 114 to 119 |
| N=C(Nc1cc(Cl)cc(NC(=O)/C=C/c2ccccc2C(F)(F)F)c1)c1ccsc1 [Example 56, (2E)-N-[3-chloro-5-[[imino(3-thienyl)methyl]amino]phenyl]-3-[2-(trifluoromethyl)phenyl]-2-propenamide] | 121 to 123 |
| N=C(Nc1cccc(NC(=O)C=Cc2ccccc2)c1)c1ccccc1 [Example 2, N-[3-(iminobenzylamino)phenyl]cinnamamide] | 115 to 117 |
| N=C(Nc1cc(Cl)cc(NC(=O)/C=C/c2ccccc2C(F)(F)F)c1)c1ccccc1F [Example 148, (2E)-N-[3-chloro-5-[imino(2-fluorobenzyl)amino]phenyl]-3-(2-trifluoromethylphenyl)-2-propenamide] | 209 to 210 |
| N=C(Nc1cc(Cl)cc(NC(=O)/C=C/c2ccccc2F)c1)c1ccccc1 [Example 138, (2E)-N-[3-chloro-5-(iminobenzylamino)phenyl]-3-(2-fluorophenyl)-2-propenamide] | 186 to 187 |
| N#Cc1cc(NC(=N)c2ccccc2)cc(NC(=O)/C=C/c2ccccc2C(F)(F)F)c1 [Example 36, (2E)-N-[3-cyano-5-(iminobenzylamino)phenyl]-3-[2-(trifluoromethyl)phenyl]-2-propenamide] | 181 to 182 |
| COc1ccc(F)cc1C(=N)Nc1cc(Cl)cc(NC(=O)/C=C/c2ccccc2C(F)(F)F)c1 [Example 30, (2E)-N-[3-chloro-5-[[(5-fluoro-2-methoxyphenyl)(imino)methyl]amino]phenyl]-3-[2-(trifluoromethyl)phenyl]-2-propenamide] | 213 to 214 |
| Cc1ncccc1Oc1ccc(C(=N)Nc2cc(Cl)cc(NC(=O)C=Cc3ccccc3Cl)c2)cc1 [Example 59, N-[3-chloro-5-[[imino[4-[(2-methyl-3-pyridyl)oxy]phenyl]methyl]amino]phenyl]-3-(2-chlorophenyl)-2-propenamide] | 105 to 107 |
| COc1ccc(Cl)cc1C(=N)Nc1ccc(F)c(NC(=O)/C=C/c2ccccc2Cl)c1 [Example 18, (2E)-N-[5-[[(5-chloro-2-methoxyphenyl)(imino)methyl]amino]-2-fluorophenyl]-3-(2-chlorophenyl)-2-propenamide] | 229 to 230 |
| N=C(Nc1cc(Cl)cc(NC(=O)/C=C/c2ccccc2C(F)(F)F)c1)c1cccs1 [Example 34, (2E)-N-[3-chloro-5-[[imino(2-thienyl)methyl]amino]phenyl]-3-[2-(trifluoromethyl)phenyl]-2-propenamide] | 178 to 179 |
| Cc1ccc(/C=C/C(=O)Nc2cccc(NC(=N)c3ccccc3)c2)cc1 [Example 38, (2E)-N-[3 (iminobenzylamino)phenyl]-3-(4-methylphenyl)-2-propenamide] | 147 to 149 |
| Cc1cccc(/C=C/C(=O)Nc2cccc(NC(=N)c3ccccc3)c2)c1 [Example 39, (2E)-N-[3-(iminobenzylamino)phenyl]-3-(3-methylphenyl)-2-propenamide] | 179 to 180 |
| N=C(Nc1cccc(NC(=O)/C=C/c2ccc(Cl)cc2)c1)c1ccccc1 [Example 47, (2E)-N-[3-(iminobenzylamino)phenyl]-3-(4-chlorophenyl)-2-propenamide] | 109 to 110 |
| CS(=O)(=O)Nc1ccc(C(=N)Nc2cc(Cl)cc(NC(=O)/C=C/c3ccccc3Cl)c2)cc1 [Example 147, (2E)-N-[3-chloro-5-[imino(4-methylsulfonylaminobenzyl)amino]phenyl]-3-(2-chlorophenyl)-2-propenamide] | 158 to 160 |
| N=C(Nc1cccc(NC(=O)/C=C/c2ccccc2Cl)c1)c1ccccc1 [Example 54, (2E)-N-[3-(iminobenzylamino)phenyl]-3-(2-chlorophenyl)-2-propenamide] | 262 to 264 |
| COc1ccc(F)cc1C(=N)Nc1cc(Cl)cc(NC(=O)/C=C/c2ccccc2Cl)c1 [Example 23, (2E)-N-[3-chloro-5-[[(5-fluoro-2-methoxyphenyl)(imino)methyl]amino]phenyl]-3-(2-chlorophenyl)-2-propenamide] | 238 to 239 |
| COc1cccc(/C=C/C(=O)Nc2cccc(NC(=N)c3ccccc3)c2)c1 [Example 48, (2E)-N-[3(iminobenzylamino)phenyl]-3-(3-methoxyphenyl)-2-propenamide] | 148 to 149 |
| N=C(Nc1ccc(F)c(NC(=O)/C=C/c2ccccc2C(F)(F)F)c1)c1cccs1 [Example 62, (2E)-N-[2-fluoro-5-[[imino(2-thienyl)methyl]amino]phenyl]-3-[2-(trifluoromethyl)phenyl]-2-propenamide] | 208 to 209 |
| CS(=O)(=O)Nc1cc(NC(=N)c2ccccc2)cc(NC(=O)/C=C/c2ccccc2C(F)(F)F)c1 [Example 146, (2E)-N-[3 (iminobenzylamino)-5-(methylsulfonylamino)phenyl]-3-(2-trifluoromethylphenyl)-2-propenamide] | 150 to 155 |

The next lines start with the values.

| melting point [°C] | Compound |
| --- | --- |
| 103 to 105 | N=C(Nc1cc(F)cc(NC(=O)/C=C/c2ccccc2C(F)(F)F)c1)c1ccccc1 [Example 137, (2E)-N-[3-fluoro-5-(iminobenzylamino)phenyl]-3-(2-trifluoromethylphenyl)-2-propenamide] |
| 180 to 185 | CC(=O)Nc1ccc(C(=N)Nc2cc(NC(=O)/C=C/c3ccccc3C(F)(F)F)c(F)cc2F)cc1 [Example 152, (2E)-N-[2,4-difluoro-5-[imino(4-acetylaminobenzyl)amino]phenyl]-3-(2-trifluoromethylphenyl)-2-propenamide] |
| 123 to 124 | N=C(Nc1cc(Cl)cc(NC(=O)/C=C/c2ccccc2Cl)c1)c1cccs1 [Example 33, (2E)-N-[3-chloro-5-[[imino(2-thienyl)methyl]amino]phenyl]-3-(2-chlorophenyl)-2-propenamide] |
| 188 to 191 | Cn1c(NCc2cccc(NC(=O)C=Cc3ccccc3Cl)c2)nc2ccccc21 [Example 43, N-[3-[[(1-methyl-1H-benzimidazol-2-yl)amino]methyl]phenyl]-3-(2-chlorophenyl)-2-propenamide] |
| 220 to 221 | N#Cc1ccccc1/C=C/C(=O)Nc1cc(Cl)cc(NC(=N)c2ccccc2)c1 [Example 67, (2E)-N-[3-chloro-5-(iminobenzylamino)phenyl]-3-(2-cyanophenyl)-2-propenamide] |
| 208 to 210 | COc1ccc(NC(=N)c2ccccc2)cc1NC(=O)/C=C/c1ccccc1C(F)(F)F [Example 140, (2E)-N-[5-(iminobenzylamino)-2-methoxyphenyl]-3-(2-trifluoromethylphenyl)-2-propenamide] |
| 133 to 135 | O=C(C=Cc1ccccc1Cl)Nc1cc(Cl)cc(Nc2noc3ccccc23)c1 [Example 186, N-[3-(1,2-benzisoxazol-3-ylamino)-5-chlorophenyl]-2-chlorocinnamamide] |
| 105 to 115 | N=C(Nc1cc(Cl)cc(NC(=O)/C=C/c2ccccc2Cl)c1)c1ccccc1 [Example 31, (2E)-N-[3-chloro-5-(iminobenzylamino)phenyl]-3-(2-chlorophenyl)-2-propenamide] |
| 214 to 216 | Cc1ncccc1Oc1ccc(NC(=O)/C=C/c2ccccc2C(F)(F)F)cn1 [Example 9, (2E)-N-[6-(2-methyl-3-pyridyloxy)pyridin-3-yl]-3-[2-(trifluoromethyl)phenyl]-2-propenamide] |
| 220 to 222 | Cc1ccc(NC(=N)c2ccccc2)cc1NC(=O)/C=C/c1ccccc1C(F)(F)F [Example 139, (2E)-N-[5 (iminobenzylamino)-2-methylphenyl]-3-(2-trifluoromethylphenyl)-2-propenamide] |
| 170 to 171 | O=C(C=Cc1ccccc1Cl)Nc1cccc(CNc2ccc3ccccc3n2)c1 [Example 50, N-[3-[(2-quinolylamino)methyl]phenyl]-3-(2-chlorophenyl)-2-propenamide] |
| 215 to 216 | N=C(Nc1ccc(F)c(NC(=O)/C=C/c2ccccc2Cl)c1)c1cccs1 [Example 16, (2E)-N-[2-fluoro-5-[[imino(2-thienyl)methyl]amino]phenyl]-3-(2-chlorophenyl)-2 propenamide] |
| 226 to 228 | COc1ccc(Cl)cc1C(=N)Nc1cc(Cl)cc(NC(=O)/C=C/c2ccccc2Cl)c1 [Example 24, (2E)-N-[3-chloro-5-[[(5-chloro-2-methoxyphenyl)(imino)methyl]amino]phenyl]-3-(2-chlorophenyl)-2-propenamide] |
| 184 to 187 | N=C(Nc1cc(Cl)cc(NC(=O)/C=C/c2c[nH]c3ccccc23)c1)c1ccccc1 [Example 205, (2E)-N-[3-chloro-5-[[imino(phenyl)methyl]amino]phenyl]-3-(1H-indole-3-yl)-2-propenamide] |
